Laboratory results taken from patent publication US20170327471A1, “Aryl sulphide and aryl sulphoxide derivatives having C-C-attached uracils as pesticides” (BAYER CROPSCIENCE AKTIENGESELLSCHAFT, priority 2014, published 2017).
Where two headings read alike, the source gives them in different places.

Key:
[1] = logP by reversed-phase HPLC (EEC Directive 79/831 Annex V.A8); type: physicochemical; settings: reversed-phase C18 HPLC column
Description: The logP values were determined in accordance with EEC Directive 79/831 Annex V.A8 by HPLC (High Performance Liquid Chromatography) using reversed-phase columns (C 18) by the following methods:
^[a] The LC-MS determination in the acidic range was effected at pH 2.7 with 0.1% aqueous formic acid and acetonitrile (contains 0.1% formic acid) as eluents; linear gradient from 10% acetonitrile to 95% acetonitrile. Called logP (HCOOH) in the table.
^[b] LC-MS determination in the neutral range was effected at pH 7.8 with 0.001 molar aqueous ammonium hydrogencarbonate solution and acetonitrile as eluents; linear gradient from 10% acetonitrile to 95% acetonitrile. Called logP (neutral) in the table.
Calibration was effected with unbranched alkan-2-ones (having 3 to 16 carbon atoms) with known logP values (logP values determined on the basis of the retention times by linear interpolation between two successive alkanones).

[2] = test system: Meloidogyne incognita; assay: Meloidogyne incognita test (soil drench, lettuce); type: in vivo; settings: application rate 8 ppm, after 21 days, lettuce in soil (loamy sand)
Description: 7. Meloidogyne incognita—Test Solvent: 7 parts by weight of dimethylformamide Emulsifier: 2.5 parts by weight of alkylaryl polyglycol ether To produce a suitable preparation of active compound, 1 part by weight of active compound is mixed with the stated amounts of solvent and emulsifier, and the concentrate is diluted with water to the desired concentration, where the volume of soil to be drenched has to be taken into account. Here, it has to be made sure that a concentration of 20 ppm of emulsifier in the soil is not exceeded. To produce further test concentrations, the mixture is diluted with water. Pots filled with soil (loamy sand) are watered with the active compound solution. An egg/larvae suspension of the southern root-knot nematode (Meloidogyne incognita) is added, lettuce seeds are scattered on the surface of the soil and covered with quartz sand. The lettuce seeds germinate and the plants develop. The galls develop on the roots. After 21 days, the nematicidal efficacy in % is determined by the formation of galls. 100% means that no galls were found; 0% means that the number of galls on the treated plants corresponds to that of the untreated control.

[3] = test system: Tetranychus urticae; assay: Tetranychus urticae drench test, OP-resistant; type: in vivo; settings: application rate 4 ppm, after 14 days, bean plants in soil
Description: 6. Tetranychus urticae—Drench Test, OP-Resistant Solvent: 7 parts by weight of dimethylformamide Emulsifier: 2 parts by weight of alkylaryl polyglycol ether
To produce a suitable preparation of active compound, 1 part by weight of active compound is mixed with the stated amounts of solvent and emulsifier, and the concentrate is diluted with water to the desired concentration, where the volume of soil to be drenched has to be taken into account. Here, it has to be made sure that a concentration of 40 ppm of emulsifier in the soil is not exceeded. To produce further test concentrations, the mixture is diluted with water.
Bean plants (Phaseolus vulgaris) in pots filled with soil, which plants are heavily infested by all stages of the greenhouse red spider mite (Tetranychus urticae), are watered with an active compound preparation of the desired concentration.
After 14 days, the efficacy in % is assessed. 100% means that all spider mites have been killed; 0% means that none of the spider mites have been killed.

[4] = test system: Panonychus ulmi; assay: Panonychus ulmi spray test; type: in vivo; settings: application rate 20 ppm, after 14 days, plum trees
Description: 8. Panonychus ulmi—Spray Test Solvent: 7 parts by weight of dimethylformamide Emulsifier: alkylaryl polyglycol ether To produce a suitable preparation of active compound, 1 part by weight of active compound is dissolved in the parts by weight of solvent stated and filled with water containing an emulsifier concentration of 1000 ppm until the desired concentration is reached. To prepare further test concentrations, the mixture is diluted with emulsifier-containing water. If the addition of ammonium salts and/or penetrants (rapeseed oil methyl ester) is required, these are, after dilution of the finished preparation solution, added using a pipette, at a concentration of in each case 1000 ppm. Plum trees (Prunus domestica), infested by a mixed population of the European red mite (Panonychus ulmi) are treated by spraying with the active compound preparation of the desired concentration. After 14 days, the kill in % is determined. 100% means that all spider mites have been killed; 0% means that none of the spider mites have been killed.

[5] = test system: Tetranychus urticae; assay: Tetranychus urticae spray test, OP-resistant (bean plants); type: in vivo; settings: application rate 20 ppm, after 7 days
Description: 5. Tetranychus urticae-Spray Test, OP-Resistant Solvent: 7 parts by weight of dimethylformamide Emulsifier: alkylaryl polyglycol ether
To produce a suitable preparation of active compound, 1 part by weight of active compound is dissolved using the stated parts by weight of solvent and made up with water containing an emulsifier concentration of 1000 ppm until the desired concentration is attained. To produce further test concentrations, the preparation is diluted with emulsifier-containing water. If the addition of ammonium salts or/and penetrants is required, these are each added in a concentration of 1000 ppm to the preparation solution.
Bean plants (Phaseolus vulgaris) heavily infested by all stages of the greenhouse red spider mite (Tetranychus urticae) are sprayed with an active compound preparation of the desired concentration.
After 7 days, the efficacy in % is determined. 100% means that all the spider mites have been killed; 0% means that none of the spider mites have been killed.

[6] = test system: Boophilus microplus; assay: Boophilus microplus injection test; type: in vivo; settings: application rate, injection into engorged adult female cattle ticks, after 7 days
Description: 1. Boophilus microplus—Injection Test Solvent: dimethyl sulphoxide
To produce a suitable preparation of active compound, 10 mg of active compound are mixed with 0.5 ml of solvent and the concentrate is diluted with solvent to the desired concentration.
1 μl of the active compound solution is injected into the abdomen of 5 engorged adult female cattle ticks (Boophilus microplus). The animals are transferred into dishes and kept in a climate-controlled room.
Efficacy is assessed after 7 days by laying of fertile eggs. Eggs which are not visibly fertile are stored in a climate-controlled cabinet until the larvae hatch after about 42 days. An efficacy of 100% means that none of the ticks has laid any fertile eggs; 0% means that all the eggs are fertile.

[7] = test system: Meloidogyne incognita; assay: Meloidogyne incognita test (sand, lettuce, solvent acetone); type: in vivo; settings: application rate 20 ppm, after 14 days, lettuce in sand
Description: 2. Meloidogyne incognita Test Solvent: 125.0 parts by weight of acetone To produce a suitable preparation of active compound, 1 part by weight of active compound is mixed with the stated amount of solvent and the concentrate is diluted with water to the desired concentration. Vessels are filled with sand, active compound solution, an egg/larvae suspension of the southern root-knot nematode (Meloidogyne incognita) and lettuce seeds. The lettuce seeds germinate and the plants develop. The galls develop on the roots. After 14 days, the nematicidal efficacy in % is determined by the formation of galls. 100% means that no galls were found; 0% means that the number of galls on the treated plants corresponds to the untreated control.

[8] = test system: Tetranychus urticae; assay: Tetranychus urticae spray test, OP-resistant (bean leaf discs); type: in vivo; settings: application rate 500 g/ha, after 6 days
Description: 4. Tetranychus urticae—Spray Test, OP-Resistant Solvent: 78.0 parts by weight of acetone • • 1.5 parts by weight of dimethylformamide Emulsifier: alkylaryl polyglycol ether
To produce a suitable preparation of active compound, 1 part by weight of active compound is dissolved using the stated parts by weight of solvent and made up with water containing an emulsifier concentration of 1000 ppm until the desired concentration is attained. To produce further test concentrations, the preparation is diluted with emulsifier-containing water.
Discs of bean leaves (Phaseolus vulgaris) infested with all stages of the greenhouse red spider mite (Tetranychus urticae) are sprayed with an active compound preparation of the desired concentration.
After 6 days, the efficacy in % is determined. 100% means that all the spider mites have been killed; 0% means that none of the spider mites have been killed.

For `Cc1cc(F)c(-c2cc(=O)n(C)c(=O)n2C)cc1[S+]([O-])CC(F)(F)F` (stereo not drawn) [Example I-1, 6-{2-Fluoro-4-methyl-5-[(2,2,2-trifluoroethyl)sulphinyl]phenyl}-1,3-dimethylpyrimidine-2,4(1H,3H)-dione], the chromatographic logP ([1]; acidic range, pH 2.7, 0.1% aqueous formic acid/acetonitrile, read-out: logP (HCOOH) = logP[a]) was 1.77, the chromatographic logP ([1]; neutral range, pH 7.8, 0.001 molar aqueous ammonium hydrogencarbonate/acetonitrile, read-out: logP (neutral) = logP[b]) was 1.75 and the “nematicidal efficacy (formation of galls)” value [2] was 90%. For the same molecule, the “efficacy (spider mites killed)” value [3] was 100%, the “efficacy (kill of spider mites)” value [4] was 100% and the “efficacy (spider mites killed)” value [5] was 100%. The “efficacy (no fertile eggs laid)” value [6] was 100%, the “nematicidal efficacy (formation of galls)” value [7] was 100% and the “efficacy (spider mites killed)” value [8] was 100%.
